Results as given in US8399462B2, “JNK modulators” (Roche Palo Alto LLC, priority 2006, dated 2013).
Several values for one entry are separate records, joined by “and”; a condition that tells them apart may be missing. Identical values can stand only once.

| Structure (SMILES) | melting point |
| --- | --- |
| CC(C)(O)c1cccc2c1ccn2-c1ccnc(N[C@H]2CC[C@H](NS(=O)(=O)N3CCOCC3)CC2)n1 [Compound 259, Morpholine-4-sulfonic acid (4-{4-[4-(2-hydroxyprop-2-yl)-indol-1-yl]-pyrimidin-2-ylamino}-cyclohexyl)-amide] | > 300 °C |
| CCOC(=O)[C@H]1CC[C@H](Nc2nccc(-n3ncc4c(OCCCS(N)(=O)=O)cccc43)n2)CC1 [Compound 260, 4-{4-[4-(3-sulfamoyl-propoxy)-indazol-1-yl]-pyrimidin-2-ylamino}-cyclohexanecarboxylic acid ethyl ester] | 166 to 167 °C |
| COC1CCCN(C(=O)[C@H]2CC[C@H](Nc3nccc(-n4ccc5c(OCCCS(C)(=O)=O)cccc54)n3)CC2)C1 (stereo partly drawn) [Compound 263, (4-{4-[4-(3-methane-sulfonyl-propoxy)-indol-1-yl]-pyrimidin-2-ylamino}-cyclohexyl)-(3-methoxy-piperidin-1-yl)-methanone] | 121 to 122 °C |
| CS(=O)(=O)CCCOc1cccc2c1ccn2-c1ccnc(N[C@H]2CC[C@H](C(=O)N3CCCC(C#N)C3)CC2)n1 (stereo partly drawn) [Compound 264, 1-(4-{4-[4-(3-methane-sulfonyl-propoxy)-indol-1-yl]-pyrimidin-2-ylamino}-cyclohexane-carbonyl)-piperidine-3-carbonitrile] | 132 to 133 °C |
| CS(=O)(=O)CCCOc1cccc2c1ccn2-c1ccnc(N[C@H]2CC[C@H](C(=O)N3CCC(C#N)CC3)CC2)n1 [Compound 265, 1-(4-{4-[4-(3-methane-sulfonyl-propoxy)-indol-1-yl]-pyrimidin-2-ylamino}-cyclohexane-carbonyl)-piperidine-4-carbonitrile] | 150.5 to 156.5 °C |
| CC(=O)N1CCN(c2cccc3c2ccn3-c2ccnc(N[C@H]3CC[C@H](NS(C)(=O)=O)CC3)n2)CC1 [Compound 267, N-(4-{4-[4-(4-acetyl-piperazin-1-yl)-indol-1-yl]-pyrimidin-2-yl-amino}-cyclohexyl)-methanesulfonamide] | 268 to 269 °C |
| COC1CN(C(=O)[C@H]2CC[C@H](Nc3nccc(-n4ccc5c(OCCCS(C)(=O)=O)cccc54)n3)CC2)C1 [Compound 274, (4-{4-[4-(3-methane-sulfonyl-propoxy)-indol-1-yl]-pyrimidin-2-ylamino}-cyclohexyl)-(3-methoxy-azetidin-1-yl)-methanone] | 162 to 163 °C |
| CN(C)C1CCN(C(=O)[C@H]2CC[C@H](Nc3nccc(-n4ccc5c(OCCCS(C)(=O)=O)cccc54)n3)CC2)CC1 [Compound 275, (4-dimethylamino-piperidin-1-yl)-(4-{4-[4-(3-methanesulfonyl-propoxy)-indol-1-yl]-pyrimidin-2-ylamino}-cyclohexyl)-methanone] | 182.4 to 183 °C and 178.9 to 180.6 °C |
| NS(=O)(=O)CCCOc1cccc2c1cnn2-c1ccnc(N[C@H]2CC[C@H](C(=O)N3CCCC3)CC2)n1 [Compound 276] | 249 to 250 °C |
| CC(C)(O)[C@H]1CC[C@H](Nc2nccc(-n3cc(C(N)=O)c4ccccc43)n2)CC1 [Compound 277, 1-{2-[4-(2-hydroxy-prop-2-yl)-cyclohexyl-amino]-pyrimidin-4-yl}-1H-indole-3-carboxylic acid amide] | 222 to 223 °C |
| CS(=O)(=O)CCCOc1cccc2c1ccn2-c1ccnc(NC2CCC(F)(F)CC2)n1 [Compound 278, (4,4-difluorocyclo-hexyl)-{4-[4-(3-methane-sulfonyl-propoxy)-indol-1-yl]-pyrimidin-2-yl}-amine] | 200 to 201 °C |
| O=C([C@H]1CC[C@H](Nc2nccc(-n3ccc4c(OCC(F)(F)F)cccc43)n2)CC1)N1CCC(O)CC1 [Compound 279, (4-hydroxy-piperidin-1-yl)-(4-{4-[4-(2,2,2-trifluoroethoxy)-indol-1-yl]-pyrimidin-2-yl-amino}-cyclohexyl)-methanone] | 140.7 to 143.3 °C |
| CS(=O)(=O)CCCOc1cccc2c1ccn2-c1ccnc(N[C@H]2CC[C@H](NS(=O)(=O)CCCN3CCOCC3)CC2)n1 [Compound 280, 3-morpholin-4-yl-pro-pane-1-sulfonic acid (4-{4-[4-(3-methane-sulfonyl-propoxy)-indol-1-yl]-pyrimidin-2-yl-amino}-cyclohexyl)-amide] | 174 to 179.3 °C |
| CC(C)(O)COc1cccc2c1ccn2-c1ccnc(N[C@H]2CC[C@H](C(=O)N3CCC(O)CC3)CC2)n1 [Compound 281, (4-{4-[4-(2-hydroxy-2-methyl-propoxy)-indol-1-yl]-pyrimidin-2-yl-amino}-cyclohexyl)-(4-hydroxy-piperidin-1-yl)-methanone] | 174 to 176.9 °C |
| COc1cccc2c1c(C(N)=O)cn2-c1ccnc(N[C@H]2CC[C@H](C(=O)N3CCC(O)CC3)CC2)n1 [Compound 282, 1-{2-[4-(4-hydroxy-piperidine-1-carbonyl)-cyclohexylamino]-pyrimidin-4-yl}-4-methoxy-1H-indole-3-carboxylic acid amide] | 278 to 280 °C |
| COc1cccc2c1c(C(N)=O)cn2-c1ccnc(N[C@H]2CC[C@H](N(C)S(C)(=O)=O)CC2)n1 [Compound 283, 1-{2-[4-(methane-sulfonyl-methylamino)-cyclohexylamino]-pyrimidin-4-yl}-4-methoxy-1H-indole-3-carboxylic acid amide] | 285 to 287 °C |
| COC(=O)CCCOc1cccc2c1ccn2-c1ccnc(N[C@H]2CC[C@H](N(C)S(C)(=O)=O)CC2)n1 [Compound 284, 4-(1-{2-[4-(methane-sulfonyl-methylamino)-cyclohexylamino]-pyrimidin-4-yl}-1H-indol-4-yloxy)-butyric acid methyl ester] | 145 to 146 °C |
| CS(=O)(=O)CCCOc1cccc2c1ccn2-c1ccnc(N[C@H]2CC[C@H](CCl)CC2)n1 [Compound 285, (4-chloromethyl-cyclo-hexyl)-{4-[4-(3-methane-sulfonyl-propoxy)-indol-1-yl]-pyrimidin-2-yl}-amine] | 152 to 155 °C |
| CN(C)C1CCN(C(=O)[C@H]2CC[C@H](Nc3nccc(-n4ccc5c(OCCCC(F)(F)F)cccc54)n3)CC2)CC1 [Compound 286, (4-dimethylamino-piperidin-1-yl)-(4-{4-[4-(4,4,4-trifluorobutoxy)-indol-1-yl]-pyrimidin-2-ylamino}-cyclohexyl)-methanone] | 179 to 180 °C |
| O=C([C@H]1CC[C@H](Nc2nccc(-n3ccc4c(OCC(O)CC(F)(F)F)cccc43)n2)CC1)N1CCC(O)CC1 (stereo partly drawn) [Compound 288] | 215 to 215.5 °C |
| CS(=O)(=O)CCCOc1cccc2c1ccn2-c1ccnc(N[C@H]2CC[C@H](C(=O)N3CCCC(O)C3)CC2)n1 (stereo partly drawn) [Compound 291, (3-hydroxy-piperidin-1-yl)-(4-{4-[4-(3-methane-sulfonyl-propoxy)-indol-1-yl]-pyrimidin-2-ylamino}-cyclohexyl)-methanone] | 167.3 to 170.5 °C |
| CC1(O)CCN(C(=O)[C@H]2CC[C@H](Nc3nccc(-n4ccc5c(OCCCS(C)(=O)=O)cccc54)n3)CC2)CC1 [Compound 292, (4-hydroxy-4-methyl-piperidin-1-yl)-(4-{4-[4-(3-methanesulfonyl-propoxy)-indol-1-yl]-pyrimidin-2-ylamino}-cyclohexyl)-methanone] | 132.6 to 137.7 °C |
| CNC1CCN(C(=O)[C@H]2CC[C@H](Nc3nccc(-n4ccc5c(OCCCS(C)(=O)=O)cccc54)n3)CC2)CC1 [Compound 293, (4-{4-[4-(3-methane-sulfonyl-propoxy)-indol-1-yl]-pyrimidin-2-ylamino}-cyclohexyl)-(4-methylamino-piperidin-1-yl)-methanone] | 187.5 to 189.1 °C |
| CS(=O)(=O)CCCOc1cccc2c1ccn2-c1ccnc(N[C@H]2CC[C@H](NS(=O)(=O)c3cccs3)CC2)n1 [Compound 294, Thiophene-2-sulfonic-acid (4-{4-[4-(3-methane-sulfonyl-propoxy)-indol-1-yl]-pyrimidin-2-ylamino}-cyclohexyl)-amide] | 226 to 227 °C |
| CN(C)C1CCN(C(=O)[C@H]2CC[C@H](Nc3nccc(-n4cc(C(N)=O)c5ccccc54)n3)CC2)CC1 [Compound 295, 1-{2-[4-(4-dimethylamino-piperidine-1-carbonyl)-cyclohexylamino]-pyrimidin-4-yl}-1H-indole-3-carboxylic acid amide] | 219 to 221 °C |
| CS(=O)(=O)CCCOc1cccc2c1ccn2-c1ccnc(N[C@H]2CC[C@H](C(=O)N3CCC(S(C)(=O)=O)CC3)CC2)n1 [Compound 297, (4-methanesulfonyl-piperidin-1-yl)-(4-{4-[4-(3-methanesulfonyl-propoxy)-indol-1-yl]-pyrimidin-2-ylamino}-cyclohexyl)-methanone] | 215 to 219 °C |
| CSC[C@H]1CC[C@H](Nc2nccc(-n3ccc4c(OCCCS(C)(=O)=O)cccc43)n2)CC1 [Compound 298, {4-[4-(3-methane-sulfonyl-propoxy)-indol-1-yl]-pyrimidin-2-yl}-(4-methylsulfanylmethyl-cyclohexyl)-amine] | 158.7 to 159.6 °C |
| NS(=O)(=O)CCCOc1cccc2c1ccn2-c1ccnc(N[C@H]2CC[C@H](C(=O)N3CCC3)CC2)n1 [Compound 299, 3-(1-{2-[4-(azetidin-1-carbonyl)-cyclohexyl-amino]-pyrimidin-4-yl}-1H-indol-4-yloxy)-propane-1-sulfonic acid amide] | 218.4 to 220.9 °C |
| CN(C)C1CCN(C(=O)[C@H]2CC[C@H](Nc3nccc(-n4ccc5c(OCCCS(N)(=O)=O)cccc54)n3)CC2)CC1 [Compound 300, 3-(1-{2-[4-(4-dimethyl-amino-piperidine-1-carbonyl)-cyclohexyl-amino]-pyrimidin-4-yl}-1H-indol-4-yloxy)-propane-1-sulfonic acid amide] | 135.7 to 142.7 °C |
| CS(=O)(=O)CCCOc1cccc2c1ccn2-c1ccnc(N[C@H]2CC[C@H](C(=O)N3CCC(NC4CC4)CC3)CC2)n1 [Compound 302, (4-cyclopropylamino-piperidin-1-yl)-(4-{4-[4-(3-methanesulfonyl-propoxy)-indol-1-yl]-pyrimidin-2-ylamino}-cyclohexyl)-methanone] | 196.3 to 197.9 °C |
